The results in this text go back to US5254584A, “N-acetonylbenzamides and their use as fungicides” (Rohm and Haas Company, priority 1992, dated 1993).

For data set [1], the system named is Venturia inaequalis. Kind of data set: Fungitoxicity assay against Venturia inaequalis (in vitro, microtiter MIC). Format: cell-based. The note with it: 168 h, minimum inhibitory concentration, 7 days at 25° C. The method, then: The compounds of Examples 1-20 were tested in vitro for fungicidal activity and phytotoxicity. A. The compounds were tested in vitro for fungicidal activity against Pythium ultimum, Botrytis cinerea and Venturia inaequalis. Fungitoxicity assay against Venturia inaequalis: Test compounds were dissolved in dimethylsulfoxide at 1 milligram per milliliter (mg/ml), and 50 ul added to 950 ul of yeast extract-dextrose medium (YED, 0.4% yeast extract, 2% dextrose) to give 50 part per million (ppm) solutions. Minimum inhibitory concentration (MIC) values were determined using a microtiter assay with twofold serial dilutions of the prepared 50 ppm solutions (100 ul) in YED medium. Inoculum consisted of a spore suspension of V. inaequalis in YED medium at 2.5×10^5 spores per ml. […] Results of the testing for fungicidal activity against the above named fungi are set forth below in Table 3 as Pythium EC50 (ppm), Botrytis EC50 (ppm) and Venturia MIC (ppm), respectively.

The nature of data set [2]: Tobacco root assay for phytotoxicity (in vitro root elongation). As to conditions: 7 days, 27° C., read-out: Tob. EC50. The method, then:
The compounds of Examples 1-20 were tested in vitro for fungicidal activity and phytotoxicity.
B. The compounds were tested in vitro for phytotoxicity in a tobacco root elongation assay.
Tobacco root assay for Phytotoxicity:
A dilution series of test compound was prepared in dimethylsulfoxide and 20 ul of each dilution was added to 20 ml of molten nutrient medium, consisting of Murashige and Skoog salt base, 2% sucrose and 1% agar, to give the desired concentrations of test compound. The mixtures were poured immediately into 9 cm diameter petri dishes. Surface-sterilized tobacco seeds were placed on each plate (20 seeds per plate) and the plates incubated in a vertical position in a 27° C. incubator with a 16 hour photoperiod. After 7 days the mean root lengths were calculated, and EC50 values determined from dose response curves.
Results of the tobacco root assay are set forth below in Table 3 as Tob. EC50 (ppm).

For data set [3], the system named is Pythium ultimum. Nature of the data set: Fungitoxicity assay against Pythium ultimum (in vitro, mycelial dry weight). Format: cell-based. As to conditions: Globisporangium ultimum, 48 hours at 25° C., read-out: Pythium EC50. The method, then: The compounds of Examples 1-20 were tested in vitro for fungicidal activity and phytotoxicity. A. The compounds were tested in vitro for fungicidal activity against Pythium ultimum, Botrytis cinerea and Venturia inaequalis. Fungitoxicity assay against Pythium ultimum: A dilution series of test compound was prepared in dimethylsulfoxide, and 0.1 milliliter (ml) of each dilution was added to 19.9 ml of a liquid asparagine-sucrose broth ([…]. and Katznelson, K., 1971, Can. J. […] Each plate was inoculated with a mycelial plug, 7 millimeters (mm) in diameter, taken from the growing edge of a culture of Pythium ultimum grown on potato dextrose agar. Two replicate plates were used for each treatment. The increase in mycelial dry weight was determined after growth for 48 hours at 25° C. with shaking on a gyrotary shaker at 60 revolutions per minute (rpm). EC50 values were calculated from dose response curves. As used herein, the terminology "EC50" means the concentration of test compound required to inhibit growth by 50% as compared to a control lacking the test compound. Results of the testing for fungicidal activity against the above named fungi are set forth below in Table 3 as Pythium EC50 (ppm), Botrytis EC50 (ppm) and Venturia MIC (ppm), respectively.

For data set [4], the system named is Botrytis cinerea. Nature of the data set: Fungitoxicity assay against Botrytis cinerea (in vitro, colony diameter). Type of data set: cell-based. As to conditions: 48 hours at 25° C., read-out: Botrytis EC50. The method, then: The compounds of Examples 1-20 were tested in vitro for fungicidal activity and phytotoxicity. A. The compounds were tested in vitro for fungicidal activity against Pythium ultimum, Botrytis cinerea and Venturia inaequalis. Fungitoxicity assay against Botrytis cinerea: […] The mixtures were poured immediately into 9 centimeter (cm) diameter petri dishes. Two replicate plates were used for each treatment. Each plate was inoculated with a 7 mm diameter plug taken from the growing edge of a 5 day old culture of B. cinerea on potato dextrose agar. […] Results of the testing for fungicidal activity against the above named fungi are set forth below in Table 3 as Pythium EC50 (ppm), Botrytis EC50 (ppm) and Venturia MIC (ppm), respectively.

Data set [5] has as its system Piricularia oryzae. Nature of the data set: organism not typed. As to conditions: 72 h, read-out: PIR percent inhibition of fungal growth. Type of data set: cell-based.
Data set [6] relates to Pseudocercosporella herpotrichoides. Nature of the data set: microbe, parasite or virus in culture. Type of data set: cell-based. As to conditions: Oculimacula yallundae, 72 h, 3 days at room temperature, read-out: PSH percent inhibition of fungal growth.
Data set [7] deals with Botrytis cinerea. Kind of data set: microbe, parasite or virus in culture. Format: cell-based. As to conditions: 72 h, 3 days at room temperature, read-out: BOC percent inhibition of fungal growth.
Data set [8] relates to Phytophthora capsici. Kind of data set: microbe, parasite or virus in culture. Format: cell-based. As to conditions: 72 h, 3 days at room temperature, read-out: PHY percent inhibition of fungal growth.
Data set [9] concerns Monilinia fructicol. Nature of the data set: microbe, parasite or virus in culture. The note with it: 72 h, 3 days at room temperature, read-out: MON percent inhibition of fungal growth. Format: cell-based.
Data set [10] concerns Cercospora beticola. Kind of data set: microbe, parasite or virus in culture. Format: cell-based. The note with it: 72 h, 3 days at room temperature, read-out: CER percent inhibition of fungal growth.
In data set [11] the test system is Fusarium roseum. Kind of data set: microbe, parasite or virus in culture. Format: cell-based. The note with it: Fusarium sambucinum, 72 h, read-out: FUS percent inhibition of fungal growth.
Data set [12] has as its system Colletotrichum lagenarium. Kind of data set: microbe, parasite or virus in culture. Format: cell-based. As to conditions: Colletotrichum orbiculare, 72 h, 3 days at room temperature, read-out: COL percent inhibition of fungal growth.
For data set [13], the system named is Rhizoctonia solani. Nature of the data set: microbe, parasite or virus in culture. The note with it: 72 h, 3 days at room temperature, read-out: RHI percent inhibition of fungal growth. Format: cell-based.
For data set [14], the system named is Pythium ultimum. Kind of data set: microbe, parasite or virus in culture. The note with it: Globisporangium ultimum, 72 h, 3 days at room temperature, read-out: PYU percent inhibition of fungal growth. Format: cell-based.

Each structure is given as a SMILES string. ≈ marks a conversion by molar mass, not a printed value.

What is called MIC is the least concentration at which growth counts as inhibited. Take `CON=Cc1cccc(C(=O)NC(C)(C)C(=O)CCl)c1` [Example 2, 3-(3'-Methoxyiminomethylbenzamido)-1-chloro-3-methylbutan-2-one]: the MIC in [1] came out at 12.5 µg/mL (≈ 42.1 µM). Besides, in [2], the IC50 at 168 h came to 4.94 µg/mL (≈ 16.6 µM). In addition, the figures for the IC50 in [3] and in data set [4] were 1.61 µg/mL (≈ 5.43 µM) and 71.3 µg/mL (≈ 240 µM), respectively.

In data set [1], `CCON=Cc1cccc(C(=O)NC(C)(CC)C(=O)CCl)c1` (stereo not drawn) [Example 3] returned an MIC of 6.25 µg/mL (≈ 19.2 µM). Further, in [2], the IC50 at 168 h is 5.35 µg/mL (≈ 16.5 µM). The IC50 came to 2.07 µg/mL (≈ 6.37 µM) in data set [3] and 21.8 µg/mL (≈ 67.1 µM) in data set [4].

On to `CCON=Cc1cccc(C(=O)NC(C)(CC)C(=O)C(Cl)Cl)c1` (stereo not drawn) [Example 4], for which the MIC in [1] is above 25 µg/mL. Besides, the figures for the IC50 in data set [3] and in data set [4] were 68.4 µg/mL (≈ 190 µM) and 68.9 µg/mL (≈ 192 µM), respectively.

`CCC(C)(NC(=O)c1cccc(C=NOC)c1)C(=O)C(Cl)Cl` (stereo not drawn) [Example 5, 3-(3'-Methoxyiminomethylbenzamido)-1,1-dichloro-3-methylpentan-2-one]: the MIC in data set [1] is above 25 µg/mL. Also, the IC50 is 16.3 µg/mL (≈ 47.2 µM) in data set [3] and 54.6 µg/mL (≈ 158 µM) in [4].

`CCC(C)(NC(=O)c1cccc(C=NOCC(=O)OC)c1)C(=O)CCl` (stereo not drawn) [Example 7] showed an MIC in data set [1] above 25 µg/mL. Besides, the IC50 at 168 h in data set [2] was determined as 9.48 µg/mL (≈ 25.7 µM). Besides, the IC50 in data set [3] is 22.8 µg/mL (≈ 61.8 µM); in data set [4], above 100 µg/mL.

Take `CCC(C)(NC(=O)c1cccc(C=NOC(C)(C)C)c1)C(=O)CCl` (stereo not drawn) [Example 8]: the minimum inhibitory concentration (MIC) in [1] is above 25 µg/mL. In data set [2], the IC50 at 168 h is 46.8 µg/mL (≈ 133 µM). Also, the IC50 in data set [3] was 173 µg/mL (≈ 489 µM); in data set [4], above 100 µg/mL.

Usually inhibition stands for the drop in the measured response relative to a control, in per cent. For `CCC(C)(NC(=O)c1cc(Cl)cc(C=NOC)c1)C(=O)CCl` (stereo not drawn) [Example 9, N-[3'-(1'-chloro-3'-methyl-2'-oxopentan)]-3-chloro-5-methoxyiminomethylbenzamide], the inhibition at 25 ppm turned out to be 100% in [5]; 100% in [6]; 90% in data set [7]; 100% in data set [8]; 100% in data set [9]; 100% in data set [10]. The inhibition at 25 ppm was 75% in data set [11], 90% in data set [12], 90% in [13] and 100% in [14]. The same compound returned an MIC in [1] of 0.05 µg/mL (≈ 0.145 µM). The IC50 at 168 h in data set [2] is 0.06 µg/mL (≈ 0.174 µM). The values for the IC50 in data set [3] and in data set [4] were 0.05 µg/mL (≈ 0.145 µM) and 0.25 µg/mL (≈ 0.724 µM), respectively.

For the compound `CCC(C)(NC(=O)c1ccc(C=NOC)cc1)C(=O)CCl` (stereo not drawn) [Example 10, 3-(4'-Methoxyiminomethylbenzamido)-1-chloro-3-methylpentan-2-one], the IC50 at 168 h in data set [2] was determined as 21.7 µg/mL (≈ 69.8 µM). The IC50 in [3] was found to be 1.57 µg/mL (≈ 5.05 µM).

For the compound `CCC(C)(NC(=O)c1cccc(C=NOC)c1)C(=O)CSC#N` (stereo not drawn) [Example 13, N-[3'-(1'-thiocyano-3'-methyl-2'oxopentan)]-3-methoxyiminomethylbenzamide], the IC50 at 168 h in data set [2] is above 20 µg/mL. For the same compound, in data set [3], the IC50 was 7.38 µg/mL (≈ 22.1 µM).

Consider `CCC(C)(NC(=O)c1ccc(Cl)c(C=NOC)c1)C(=O)CCl` (stereo not drawn) [Example 14, N-[3'-(1'-chloro-3'-methyl-2'-oxopentan)]-4-chloro-3-methoxyiminomethylbenzamide], for which inhibition of growth in data set [1] (MIC) required 25 µg/mL (≈ 72.4 µM). Besides, the IC50 at 168 h in [2] was determined as 1.25 µg/mL (≈ 3.62 µM). The IC50 in data set [3] turned out to be 4.68 µg/mL (≈ 13.6 µM); in [4], 28.1 µg/mL (≈ 81.4 µM).

In turn, `CCC(C)(NC(=O)c1cc(C=NOC)cc(C=NOC)c1)C(=O)CCl` (stereo not drawn) [Example 15, N-[3'-(1'-chloro-3'-methyl-2'-oxopentan)]-3,5-dimethoxyiminomethylbenzamide] showed an MIC in [1] of 1.56 µg/mL (≈ 4.24 µM). The IC50 at 168 h in [2] was found to be 2.33 µg/mL (≈ 6.33 µM). Besides, the results for the IC50 in data set [3] and in data set [4] were 4.16 µg/mL (≈ 11.3 µM) and 4.19 µg/mL (≈ 11.4 µM), respectively.

In turn, `CCC(C)(NC(=O)c1ccc(C=NOC)c(Cl)c1)C(=O)CCl` (stereo not drawn) [Example 16, N-[3'-(1'-chloro-3'-methyl-2'-oxopentan)]-3-chloro-4-methoxyiminomethylbenzamide] returned a minimum inhibitory concentration (MIC) in [1] of 6.25 µg/mL (≈ 18.1 µM). In addition, the IC50 at 168 h in data set [2] was 11.3 µg/mL (≈ 32.8 µM). In addition, the results for the IC50 in [3] and in data set [4] were 0.58 µg/mL (≈ 1.68 µM) and 12.6 µg/mL (≈ 36.5 µM), respectively.

Regarding `CCC(C)(NC(=O)c1cccc(C(C)=NOC)c1)C(=O)CCl` (stereo not drawn) [Example 17], the minimal inhibitory concentration (MIC) in [1] was above 25 µg/mL. For the same compound, the IC50 worked out at 24.2 µg/mL (≈ 74.5 µM) in data set [3] and 97.3 µg/mL (≈ 300 µM) in data set [4].

In the case of `CCC(C)(NC(=O)c1cc(C)cc(C=NO)c1)C(=O)CCl` (stereo not drawn) [Example 18], in data set [1], the MIC was above 25 µg/mL. Also, the IC50 in data set [3] worked out at 5.95 µg/mL (≈ 19.1 µM); in [4], 53.9 µg/mL (≈ 173 µM).

`CCC(C)(NC(=O)c1ccc(C(C)=NOC)cc1)C(=O)CCl` (stereo not drawn) [Example 19, 3-(4'-Methoxyiminomethyl(methyl)benzamido)-1-chloro-3-methylpentan-2-one] showed a minimum inhibitory concentration (MIC) in data set [1] above 25 µg/mL. For the same compound, the IC50 in [3] was above 10 µg/mL; in data set [4], above 100 µg/mL.

As for `CCC(C)(NC(=O)c1cc(Cl)c(C=NOC)c(Cl)c1)C(=O)CCl` (stereo not drawn) [Example 20, N-[3'-(1'-chloro-3'-methyl-2'-oxopentan)]-3,5-dichloro-4-methoxyiminobenzamide], in data set [2], the IC50 at 168 h was determined as 1 µg/mL (≈ 2.63 µM). Also, the IC50 in [3] came to 0.23 µg/mL (≈ 0.606 µM).
